Holding throughout (type): biochemical
In one assay the target is T1, human LD1 (Homo sapiens, UniProt P07195).
T1 construct: A specific human LDH isoenzyme (obtained from liver homogenate or red blood cell); from tissue; host or cells: human liver homogenate or red blood cell
In words: LDH assay with human enzyme-containing serum. The note with it: 0.1 M DSS; pH 7.8; 14% protein. As to the method: (§1) The assay for LDH activity in both the absence and presence of surfactant was conducted as follows. […] The resulting solution contains approximately 5 units/ml. […] To the equilibrated solution […]. of the enzyme solution was added, and the cuvette was rapidly shaken while covering the top of the cuvette with a small piece of Parafilm® and placed back into the spectrophotometer.
(§2) Pooled human serum, kept frozen until ready for use, was raised to pH 11.5 until all LDH activity was destroyed. The pH was then adjusted to 7.4 and the serum was again assayed for LDH activity to ensure that no LDH had been reactivated. A specific human LDH isoenzyme (obtained from liver homogenate or red blood cell) was then added to the pool to give an enzyme concentration of ~100 U/l. The spiked serum samples were refrigerated between uses and respiked when necessary. Fresh serum was prepared weekly.
(§3) 8. The assay method used is the same as described above for Examples 1-12, except that the test samples consisted of 25-30 μl of serum instead of 100 μl of aqueous enzyme solution.

The target of a further assay is T2, human LD2 (Homo sapiens, UniProt P00338+P07195).
T2 construct: A specific human LDH isoenzyme (obtained from liver homogenate or red blood cell); from tissue; host or cells: human liver homogenate or red blood cell
In words: LDH assay with human enzyme-containing serum. The note with it: 0.1 M DSS; pH 7.8; 14% protein. The method, then: as §1, §2, §3

For the next assay, the target named is T3, human LD3 (Homo sapiens, UniProt P00338+P07195).
T3 construct: A specific human LDH isoenzyme (obtained from liver homogenate or red blood cell); from tissue; host or cells: human liver homogenate or red blood cell
In words: LDH assay with human enzyme-containing serum. The note with it: 0.1 M DSS; pH 7.8; 14% protein. As to the method:
as §1, §2, §3

The target of a further assay is T4, human LD4 (Homo sapiens, UniProt P00338+P07195).
T4 construct: A specific human LDH isoenzyme (obtained from liver homogenate or red blood cell); from tissue; host or cells: human liver homogenate or red blood cell
Put plainly: LDH assay with human enzyme-containing serum. The note with it: 0.1 M DSS; pH 7.8; 14% protein. The method, then: as §1, §2, §3

The target in another assay is T5, human LD5 (Homo sapiens, UniProt P00338).
T5 construct: A specific human LDH isoenzyme (obtained from liver homogenate or red blood cell); from tissue; host or cells: human liver homogenate or red blood cell
Put plainly: LDH assay with human enzyme-containing serum. The settings on record: 0.1 M DSS; pH 7.8; 14% protein. The method, then:
as §1, §2, §3

The test system of assay [1] is isoenzymes of creatinine phosphokinase (CPK). Put plainly: Conventional coupled CPK assay (hexokinase, glucose-6-phosphate dehydrogenase). The note with it: conventional assay with coupled reactions, hexokinase and glucose-6-phosphate dehydrogenase. From the text:
Of course, the particular amphiphile used and the concentration at which it is used will depend upon the particular isoenzyme being assayed. Not every amphiphile will have a discriminatory effect on the activity of isoenzymes in each isoenzyme system.

Regarding `CCCCCCCCCCOS(=O)(=O)[O-].[Na+]` [DSS, sodium decylsulfate], the “human LD1 activity” value at human LD1 is “fully active”. For the same molecule, the “human LD2 activity” value on human LD2 is listed as “completely deactivated”. Moreover, the “human LD3 activity” value on human LD3 was “completely deactivated”. Moreover, on human LD4, the “human LD4 activity” value is given as “completely deactivated”. The “human LD5 activity” value on human LD5 is reported as “completely deactivated”. Further, the “discriminatory effect on the activities of the isoenzymes of CPK” value in assay [1] is “do not appear to have any discriminatory effect”.

Values taken from US4250255A, “Assay method for isoenzyme activity” (Eastman Kodak Company, priority 1977, dated 1981).
